Measured values: publication PMC6337126, “Thiophene Derivatives as Anticancer Agents and Their Delivery to Tumor Cells Using Albumin Nanoparticles” (Molecules, 2019)
≈ marks a conversion by molar mass, not a printed value. Where “and” joins values, the source holds several entries; their conditions need not be identical. Identical values can stand only once. Like-named read-outs stand apart in the source and are kept apart here.

How the values were obtained:
[1] = In vitro drug release by dialysis method; type: physicochemical; conditions: over 120 h, PBS containing 20.0% ethanol, 37 °C
Method: The detailed process was as follows: first, TP 5 and TP 5-NPs were all dissolved or dispersed in 1.0 mL PBS (pH 7.4), respectively. Then, they were placed in a dialysis bag (the molecule weight cutoff was 12.0 kD). After that, they were placed in 50.0 mL release medium PBS containing 20.0% v/v ethanol and maintained at 37 °C with continuous stirring at 150 rpm. Sink conditions were maintained. At predetermined time intervals, 1.0 mL release medium was withdrawn and replaced with 1.0 mL 37 °C fresh release medium. Finally, the released capacity of TP 5 was detected by HPLC.

HepG2 [2] = assay: Cytotoxicity of TP 5-NPs in vitro (MTT); type: cell-based
Method: (§1) The cytotoxicity of TP 5-NPs in two cell lines in vitro was assessed. Briefly, cells with a density of 8 × 10^4 cells per wells were placed and cultured in 96-well plates. After incubated 24 h at 37 °C, 100 μL of medium containing different concentrations of TP 5-NPs or TP 5 (10.0, 20.0, 30.0, 40.0 and 50.0 μg/mL) was added to each well and cultured another 24, 48 or 72 h at 37 °C (wells containing the normal medium without formulation were regarded as controls). After that, 10.0 μL of MTT (5.0 mg/mL) was added into each well and incubated for 4.0 h. Finally, the medium was removed and 100.0 μL of DMSO was added. OD values were tested by microplate reader at 490 nm when the formazan precipitate was completely dissolved.

SMMC-7721 [3] = assay: Cytotoxicity of TP 5-NPs in vitro (MTT); type: cell-based
Method: as §1

HepG2 [4] = assay: ROS assay (DCFH-DA); type: cell-based; conditions: HepG2, 30.0 μg/mL, 12 h
Method: (§2) The experimental procedure was similar to the part 4.2.8. Similarly, HepG2 and SMMC-7721 cell were seeded in a 12-well plate and incubated for 24 h. 30.0 μg/mL of TP 5-NPs or TP 5 was added and cultured for another 12 h. After that, 10 μM 2′, 7′-dichlorodihydrofluorescein diacetate (DCFH-DA, Sigma-Aldrich, Saint Louis, MO, USA) was added and incubated for 10.0 min in the dark. Inversed fluorescent microscope was applied to observe fluorescence images.

SMMC-7721 [5] = assay: ROS assay (DCFH-DA); type: cell-based; conditions: SMMC-7721, 30.0 μg/mL, 12 h
Method: as §2

[6] = Stability of TP 5 at different temperatures by HPLC; type: physicochemical; conditions: for Detected Concentration: calculated concentration 200.0 μg/mL, single replicates
Method: (§3) In order to investigate the solubility and stability of TP 5, a certain amount of TP 5 was dissolved in several solvents (deionized water, PBS buffered solution pH 7.4, ethanol, ethyl acetate, and dichloromethane) and make it saturate. The solubility was measured by HPLC. In addition, for the stability of TP 5, 200.0 μg/mL of TP 5 was placed in different temperature (25.0, 40.0 and 60.0) and the concentration was detected and compared with practical concentration.

HepG2 [7] = assay: Mitochondrial transmembrane potential assay (JC-1); type: cell-based; conditions: HepG2, 30.0 μg/mL, 12 h
Method: (§4) In general, cell apoptosis is often accompanied by the transformation of mitochondrial transmembrane potential (ΔΨm). […] In order to verify whether TP 5-NPs can induce cancer cell apoptosis, ΔΨm was measured. Firstly, HepG2 and SMMC-7721 cell with a density of 2 × 10^5 cells per wells in 1.0 mL of medium all were seeded in a 12-well plate and incubated for 24 h. After that, 30.0 μg/mL of TP 5-NPs or TP 5 was added and cultured for another 12 h, in which wells containing normal medium without drugs were regarded as controls. Cells were washed using PBS for three times, incubated for 10 min in 10.0 μg/mL of JC-1 dye in the dark. The level of mitochondrial depolarization was observed by inverted fluorescent microscope and quantitatively analyzed by imaging software Image J [26].

SMMC-7721 [8] = assay: Mitochondrial transmembrane potential assay (JC-1); type: cell-based; conditions: SMMC-7721, 30.0 μg/mL, 12 h
Method: as §4

HepG2 [9] = assay: MTT screening assay of TPs; type: cell-based
Method: (§5) HepG2 and SMMC-7721 cell lines were cultured and grown in complete DMEM containing 10% FBS and 1% streptomycin and penicillin in 5% CO2 at 37 °C. TPs were fabricated using the method as described previously. The cytotoxicity of TPs in HepG2 and SMMC-7721 cell in vitro was evaluated by MTT assay. Firstly, cells with a density of 8 × 10^4 cells per wells were placed and cultured in 96-well plates and incubated 24 h at 37 °C. Then, 100 μL of TPs DMEM solution (30 μg/mL) was added into each well. After incubated 24 h, 10 μL of MTT solution (5.0 mg/mL) was added and incubated 4 h. Finally, the medium was removed, 100 μL of DMSO was added and OD values were tested using microplate reader (Synergy4, multi-mode microplate reader, BioTek, Winooski, VT, USA) at 490 nm when the formazan precipitate was completely dissolved. It is worth noting that wells containing normal medium without TPs were regarded as controls. In addition, wells which add the medium with paclitaxel were regarded as a positive control.

SMMC-7721 [10] = assay: MTT screening assay of TPs; type: cell-based
Method: as §5

[11] = Solubility of TP 5 in solvents by HPLC; type: physicochemical
Method: as §3

Compound: Cc1cc2c(s1)C1=NC(=O)OC1(c1ccc(Cl)c(Cl)c1)CC2 (centres unmarked) [TP 5]
- drug released [1]: ~ 20%
- cytotoxicity (HepG2 [2]; HepG2, 10.0-50.0 μg/mL, 24, 48 and 72 h): dose and time-dependent cytotoxicity
- concentration above which cells were completely killed (HepG2 [2]; HepG2, MTT, 24, 48 and 72 h): exceeds 40.0 μg/mL
- cytotoxicity (SMMC-7721 [3]; SMMC-7721, 10.0-50.0 μg/mL, 24, 48 and 72 h): dose and time-dependent cytotoxicity
- concentration above which cells were completely killed (SMMC-7721 [3]; SMMC-7721, MTT, 24, 48 and 72 h): exceeds 40.0 μg/mL
- levels of ROS (HepG2 [4]): higher than those of control cells
- levels of ROS (SMMC-7721 [5]): higher than those of control cells
- Detected Concentration ([6]; 25.0 °C): 201.18 µg/mL and 200.53 µg/mL and 199.88 µg/mL
- Detected Concentration ([6]; 40.0 °C): 202.66 µg/mL and 200.05 µg/mL and 202.01 µg/mL
- Detected Concentration ([6]; 60.0 °C): 202.28 µg/mL and 202.93 µg/mL and 201.19 µg/mL
- thermal stability of structure ([6]; temperature increased to 60 °C, HPLC): stable
- JC-1 polymer/monomer (red/green) fluorescence ratio (HepG2 [7]): lower than those of controls
- JC-1 polymer/monomer (red/green) fluorescence ratio (SMMC-7721 [8]): lower than those of controls
- antitumor activity compared with other TPs and paclitaxel (HepG2 [9]; HepG2, 30.0 μg/mL, 24 h): higher activity than other TPs including paclitaxel
- antitumor activity compared with other TPs and paclitaxel (SMMC-7721 [10]; SMMC-7721, 30.0 μg/mL, 24 h): higher activity than other TPs including paclitaxel
- solubility ([11]; PBS containing 20.0% v/v ethanol, PBS pH 7.4 containing 20.0% v/v ethanol, read-out: Solubility in release (acceptor) medium): 88.2 µg/mL (≈ 250 µM)
- solubility ([11]; aqueous buffer, thermodynamic from solid, PBS buffered solution (pH 7.4), 25 °C, read-out: Solubility): 27.6 µg/mL (≈ 78.5 µM)
- solubility ([11]; deionized water, 25 °C, water, thermodynamic from solid, read-out: Solubility): 26.4 µg/mL (≈ 74.8 µM)
- solubility ([11]; dichloromethane, 25 °C, organic solvent or mixture, thermodynamic from solid, read-out: Solubility): > 13000 µg/mL
- solubility ([11]; ethanol, 25 °C, organic solvent or mixture, thermodynamic from solid, read-out: Solubility): 2480 µg/mL (≈ 7040 µM)
- solubility ([11]; ethyl acetate, 25 °C, organic solvent or mixture, thermodynamic from solid, read-out: Solubility): > 6800 µg/mL

Compound: CC(=O)O[C@H]1C(=O)[C@@]2(C)[C@H]([C@H](OC(=O)c3ccccc3)[C@]3(O)C[C@H](OC(=O)[C@H](O)[C@@H](NC(=O)c4ccccc4)c4ccccc4)C(C)=C1C3(C)C)[C@]1(OC(C)=O)CO[C@@H]1C[C@@H]2O [paclitaxel, reference compound]
- IC50 (HepG2 [9]; Homo sapiens, HepG2, 24 h): 35.9 µg/mL
- IC50 (SMMC-7721 [10]; Homo sapiens, SMMC-7721, 24 h): 35.3 µg/mL
